{
  "source": "patent US20240316012A1",
  "about": "“METHODS FOR TREATING LYMPHOMA” (Northwestern University, priority 2023, published 2024)",
  "system": "ACLY (p-ACLY^S455)",
  "assay": "Western blot analysis of p-ACLY^S455",
  "type": "cell-based, mouse",
  "details": "overnight in vitro with anti-PD-L1; Wortmannin 20 nM, LY294002 20 μM; 2 μM, 10 μM",
  "experimental": "FIGS. 4A-4H show ACLY is a critical effector molecule downstream of PD-1. […] ITK-SYK^+ cells were FACS-sorted from ITK-SYK^CD4-creERT2 mice on d5 after TAM and 12 h anti-PD-L1 or isotype control antibody treatment (i.p., 200 μg). P=paired two-sided Student's t-test. Data are presented as the mean±SD. […] Spleen-derived single-cell suspensions were FACS-sorted from ITK-SYK^CD4-creERT2 mice on d5 after TAM and cultured in vitro overnight with anti-PD-L1 or isotype control antibodies and the PI3K inhibitors (“iPI3K”) Wortmannin (20 nM), LY294002 (20 μM), or DMSO. […] Spleen-derived lymphocytes, FACS-sorted from ITK-SYK^CD4-creERT2 and ITK-SYK^CD4-creERT2; Pdcd1^−/− mice on d5 after TAM were incubated for three days in vitro. P=two-sided Student's t-test. Data are presented as the mean±SD. […] Protein lysates were generated after 48 h in vitro culture. RNP, ribonucleoprotein. […] P=two-sided Logrank-test. […] ITK-SYK^+ cells were FACS-sorted from ITK-SYK^CD4-creERT2 (“Pdcd1^+/+”) and ITK-SYK^CD4-creERT2; Pdcd1^−/− (“Pdcd1^−/−”) mice on d5 after TAM, fixed, and processed for anti-H3K27ac ChIP-seq analysis. ChIP-seq, chromatin immunoprecipitation sequencing; TSS, transcription start site. FIG. 4B, Representative data from three independent experiments with three biological replicates per group. FIG. 4C, Representative data from two independent experiments with two biological replicates. […]",
  "data": [
    {"smiles": "O=c1cc(N2CCOCC2)oc2c(-c3ccccc3)cccc12", "note": "[LY294002, 2-(4-morpholinyl)-8-phenyl-4H-1-benzopyran-4-one]", "values": [
      {"measurement": "p-ACLY^S455 phosphorylation induced by PD-1 inactivation", "result": "could be reversed"}
    ]}
  ]
}
